Measurements from patent US20100004169A1, “CCN3 peptide” (The Queen's University of Belfast, priority 2006, published 2010).
d = 2'-deoxy (DNA); r = 2'-OH (RNA)

B1: recombinant CCN3: recombinant CCN3 protein from Peprotech EC, London, UK (protein, UniProt P48745 32-357, looked up)
CCN family member 3: TQRCPPQCPGRCPATPPTCAPGVRAVLDGCSCCLVCARQRGESCSDLEPCDESSGLYCDRSADPSNQTGICTAVEGDNCVFDGVIYRSGEKFQPSCKFQCTCRDGQIGCVPRCQLDVLLPEPNCPAPRKVEVPGECCEKWICGPDEEDSLGGLTLAAYRPEATLGVEVSDSSVNCIEQTTEWTACSKSCGMGFSTRVTNRNRQCEMLKQTRLCMVRPCEQEPEQPTDKKGKKCLRTKKSLKAIHLQFKNCTSLHTYKPRFCGVCSDGRCCTPHNTKTIQAEFQCSPGQIVKKPVMVIGTCTCHTNCPKNNEAFLQELELKTTRGKM

Assays:
CCN3 [1] = experiment: Western blot of cellular and secreted CCN3 in CD34+ cells from CML patients treated in vitro; format: cell-based, human; settings: CD34+ cells from three CML patients at diagnosis, imatinib 1 μM, 72 hours in vitro
CCN3 [2] = experiment: Real-time PCR of CCN3 expression in CML cell lines (K562) after treatment; format: cell-based, human; settings: for CCN3 expression (in words): CML cell lines; for mean Ct change for CCN3: n=3
Description: (§1) K562 cells were nucleofected following the manufacturer's instructions using the Cell Line Nucleofector Kit V, program T-16 (Amaxa GmbH, Cologne, Germany) and transfected with either the appropriate si-RNA, a scrambled si-RNA sequence or a non-silencing fluorescently labeled si-RNA (Amaxa GmbH) to monitor transfection efficiency. […] Leukemia.
(§2) RQ-PCR was performed with an ABI PRISM 7700 Sequence Detector which exploits TaqMan probe based chemistry (Applied Biosystems, Foster City, Calif.). The 5′ reporter used was 6-carboxyfluorescein (FAM) and the 3′ quencher was 6-carboxy-tetramethylrhodamine (TAMRA). Primers and probes for CCN3 were designed against GenBank published sequences in association with Primer Express (Applied Biosystems). […] Leukemia. […] Amplifications were performed following an initial 2-minute incubation at 50° C. to allow uracil-N-glycosylase (UNG) to destroy any contaminating […], followed by treatment at 95° C. for 10 minutes to inactivate the UNG enzyme and activate the AmpliTaq Gold DNA polymerase. This was followed by 40 to 45 cycles of denaturing at 95° C. for 15 seconds and annealing/extension at 60° C. for 1 minute. Data were collected and analysed with Sequence Detector v1.6.3 software (Applied Biosystems).

CCN3 [3] = experiment: Real-time PCR of CCN3 in bone marrow of CML patients at diagnosis and following treatment; format: in vivo, human; settings: three CML patients, diagnosis vs following treatment
Excerpt: Leukemia. 2003; 17:2474-2486).

BCR-ABL = experiment: Real-time PCR of BCR-ABL expression in CML cell lines (K562) after treatment; format: cell-based, human
Description: as §1, §2

CCN3 [4] = experiment: Extracellular (secreted) CCN3 protein levels in K562 after siRNA to BCR-ABL; format: cell-based, human; settings: K562 cells, n=3
Description: Protein was extracted from cells by suspending in RIPA buffer (1×PBS, 1% Nonidet NP-40, 0.1% SDS) containing a cocktail of protease Inhibitors (Complete Mini Cocktail, Roche Diagnostics Ltd, Lewes, UK) at a concentration of 10^7 cells/mL and lysing for 10 minutes on ice. Samples were sonicated for 10 seconds to ensure complete lysis, centrifuged at 10,000 g at 4° C. for 10 minutes and the supernatant removed for analysis. Total protein content was determined by the […] using the BCA protein assay kit (Pierce, Cramlington, UK). Protein (15 μg) was loaded onto a pre-cast Bis-Tris polyacrylamide gel (10%) using the Novex mini gel system (Invitrogen, Paisley, UK) and subsequently transferred to a PVDF membrane. CCN3 expression was detected using an antibody raised against the C terminus of CCN3. Equivalent protein loading was controlled by monitoring actin expression using a pan-actin antibody (Cell Signalling Technology Inc, MA). Immunoblots were visualised by enhanced chemiluminescence (Supersignal, Pierce). Optical densitometry was performed using the […] (Ultra-Violet Products Ltd., Cambridge, UK) and corrected for protein loading. CCN3 protein is glycosylated and binds to heparin. Medium in which ts BCR-ABL FDCP-Mix or control cells had been grown for 24 hours was harvested and enriched for CCN3 protein using heparin sepharose. […]

K562 cells = experiment: Flow cytometric cell cycle analysis (sub-G0) of K562 cells treated with exogenous recombinant CCN3; format: cell-based, human; settings: 100 ng/ml CCN3, 48 hours
Description: K562 cells (1×10^6 cells/well) were treated with recombinant CCN3 (100 ng/ml, Peprotech EC, London, UK) in vitro for 48 hours. Cells were then fixed in 70% ethanol for flow cytometric analysis of cell cycle status as before.

[5] = K562 cells, siRNA 0.5 μg/10^8 cells, 24 hours

| Molecule | cellular and secreted CCN3 expression (in words) (CCN3 [1]) | CCN3 expression (in words) (CCN3 [2]) | mean Ct change for CCN3 (CCN3 [2]; K562 cells, 1 μM imatinib, 96 hours) | CCN3 expression following treatment (in words) (CCN3 [3]) | BCR-ABL expression (in words) (BCR-ABL; CML cell lines) | fold decrease in BCR-ABL (BCR-ABL; [5]) [fold] | mean Ct change for BCR-ABL (BCR-ABL; K562 cells, siRNA to BCR-ABL, n=3) | decrease in secreted levels of CCN3 protein (CCN3 [4]) [%] | fold increase in CCN3 (CCN3 [2]; [5]) [fold] | mean Ct change for CCN3 (CCN3 [2]; K562 cells, siRNA to BCR-ABL) | sub-G0 peak (K562 cells) [%] |
| --- | --- | --- | --- | --- | --- | --- | --- | --- | --- | --- | --- |
| Cc1ccc(NC(=O)c2ccc(CN3CCN(C)CC3)cc2)cc1Nc1nccc(-c2cccnc2)n1 [imatinib] | significant increase in both cellular and secreted CCN3 expression | increased CCN3 expression | 2.1±0.2 | reciprocal rise in CCN3 |  |  |  |  |  |  |  |
| si-RNA directed against BCR-ABL: 21-base si-RNA directed against the fusion sequence of BCR-ABL, SEQ ID NO 9 sense, SEQ ID NO 10 antisense (sense GCAGAGUUCAAAAGCCCUUTT; antisense AAGGGCUUUUGAACUCUGCTT; sugars from the 5' end r19 d2, backbone not given here) |  | increased CCN3 expression |  |  | significantly reduced BCR-ABL | 3.7 | 1.9±0.2 | 33±5 | 6.1 | 2.6±0.5 |  |
| B1 |  |  |  |  |  |  |  |  |  |  | 23.7±6.9 |
